These results are taken from patent publication US20250195530A1, “POLQ INHIBITORS” (ASTRAZENECA AB, priority 2022, published 2025).

For assay [1], the system named is DLD-1 cells. In words: Inhibition of proliferation, DLD-1 BRCA2 wt control (Cell Titre Glo 3D). It counts as cell-based. Conditions: Homo sapiens. The method in brief: (§1)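 Wild-type DLD-1 serves as the control for non-specific toxicity, and BRCA2-null DLD-1 as the homologous-recombination-deficient line. Both grew with compound from 10 μM down to 0.51 nM, re-dosed after 6 days. Luminescent ATP content (CellTiter-Glo 3D) was read after 7 or 12 days, respectively, to give IC50 values.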

Assay [2] concerns DLD-1 BRCA2−/− cells. In words: Homologous recombination synthetic lethal inhibition of proliferation, DLD-1 BRCA2-/- (Cell Titre Glo 3D). It counts as cell-based. The settings on record: Homo sapiens. The gist of the method:
as §1

The mark [3] stands for this setting: DLD-1, 168 h, DLD-1 BRCA2 wt cells, 7 days, read-out: POLQ PD Prolif Lumin DLD1 mean pIC50 (converted).
The mark [4] stands for this setting: DLD-1, 288 h, DLD-1 BRCA2−/− cells, 12 days, read-out: POLQ PD Prolif Lumin BRCA2 −/− mean pIC50 (converted).
The mark [5] stands for this setting: DLD-1, DLD-1 BRCA2 wt control proliferation, column head only partly shown, read-out: POLQ PD Prolif Lumin (converted).
The mark [6] stands for this setting: DLD-1, DLD-1 BRCA2-/- proliferation, column head only partly shown, read-out: POLQ PD Prolif Lumin (converted).
The mark [7] stands for this setting: DLD-1, DLD1 BRCA2 wt, mean, read-out: POLQ PD Prolif Lumin DLD1 mean pIC50 (converted).
Where [8] appears, read: DLD-1, DLD-1 BRCA2 −/−, mean, read-out: POLQ PD Prolif Lumin BRCA2 −/− mean pIC50 (converted).
Setting [9] is: DLD-1, second proliferation column (c6), DLD-1 BRCA2 wt control, read-out: POLQ PD Prolif Lumin (converted).
Setting [10] is: DLD-1, first proliferation column (c5), DLD-1 BRCA2-/-, read-out: POLQ PD Prolif Lumin (converted).

Structures are written as SMILES. Read-outs that look alike come from different tables or passages of the source.

In the case of `Cc1cc(O[C@H]2CCCNC2)ncc1-c1nc2c(OC3(C)CC3)ncnc2n1Cc1ccccc1` [Example G13, (S)-9-benzyl-8-(4-methyl-6-(piperidin-3-yloxy)pyridin-3-yl)-6-(1-methylcyclopropoxy)-9H-purine], the IC50 in assay [1] (setting [3]) is more than 10000 nM; in assay [2] (setting [4]), 501 nM.
The corresponding values for `CN1CCN(CCOc2ccc(-c3nc4c(OC5(C)CC5)ncnc4n3Cc3ccncc3)c(Cl)c2)CC1` [Example K1, 8-(2-chloro-4-(2-(4-methylpiperazin-1-yl)ethoxy)phenyl)-6-(1-methylcyclopropoxy)-9-(pyridin-4-ylmethyl)-9H-purine] are more than 10000 nM and 1000 nM.
As for `CC1(Oc2ncnc3c2nc(-c2ccc(OCCOCCOCC(=O)O)cc2Cl)n3Cc2cccc(Cl)c2)CC1` [Example T451, 2-(2-(2-(3-chloro-4-(9-(3-chlorobenzyl)-6-(1-methylcyclopropoxy)-9H-purin-8-yl)phenoxy)ethoxy)ethoxy)acetic acid], the IC50 was more than 10000 nM in assay [1] (DLD-1, proliferation, luminescence, second Prolif column (c6), taken as DLD-1 BRCA2 wt control, read-out: POLQ PD Prolif Lumin (converted)) and 501 nM in assay [2] (DLD-1, proliferation, luminescence, taken as DLD-1 BRCA2-/-, read-out: POLQ PD Prolif Lumin (converted)).
In the case of `Cc1ccnc(Cn2c(-c3ccc(O[C@H]4CCNC4)cc3Cl)nc3c(OC4(C)CC4)ncnc32)c1` [Example T208, (S)-8-(2-chloro-4-(pyrrolidin-3-yloxy)phenyl)-6-(1-methylcyclopropoxy)-9-((4-methylpyridin-2-yl)methyl)-9H-purine], the values for the IC50 in assay [1] (setting [5]) and in assay [2] (setting [6]) were more than 10000 nM and 501 nM, respectively.
Regarding `CC1(Oc2ncnc3c2nc(-c2ccc(OCC(=O)NCCO)cc2Cl)n3Cc2ccccc2)CC1` [Example D28, 2-(4-(9-benzyl-6-(1-methylcyclopropoxy)-9H-purin-8-yl)-3-chlorophenoxy)-N-(2-hydroxyethyl)acetamide], the IC50 in assay [1] (setting [3]) was more than 10000 nM; in assay [2] (setting [4]) it was 79.4 nM.
The corresponding values for `CC1(Oc2cccc3c2nc(-c2ccc(OCCN4CCNCC4)cc2Cl)n3Cc2ccccn2)CCC1` [Example P1, 2-(2-chloro-4-(2-(piperazin-1-yl)ethoxy)phenyl)-4-(1-methylcyclobutoxy)-1-(pyridin-2-ylmethyl)-1H-benzo[d]imidazole] are more than 10000 nM and 1260 nM.
In the case of `CNC(=O)c1ccc(-c2nc3c(OC4(C)CC4)ncnc3n2Cc2ccccc2)c(Cl)c1` [Example N2, 4-(9-benzyl-6-(1-methylcyclopropoxy)-9H-purin-8-yl)-3-chloro-N-methylbenzamide], the IC50 in assay [1] (setting [3]) is more than 10000 nM; in assay [2] (setting [4]), 251 nM.
Regarding `CC(CCOc1ccc(-c2nc3c(OC4(C)CC4)ncnc3n2Cc2cc(F)cc(F)c2)c(Cl)c1)C(=O)O` (racemic) [Example T260, 4-(3-chloro-4-(9-(3,5-difluorobenzyl)-6-(1-methylcyclopropoxy)-9H-purin-8-yl)phenoxy)-2-methylbutanoic acid], the IC50 was more than 10000 nM in assay [1] (setting [5]) and 251 nM in assay [2] (setting [6]).
In the case of `Cc1cc(OCCCN(C)C)ncc1-c1nc2c(OC3(C)CC3)ncnc2n1Cc1ccccc1` [Example G2, 3-((5-(9-benzyl-6-(1-methylcyclopropoxy)-9H-purin-8-yl)-4-methylpyridin-2-yl)oxy)-N,N-dimethylpropan-1-amine], the results for the IC50 in assay [1] (setting [3]) and in assay [2] (setting [4]) were more than 10000 nM and 1000 nM, respectively.
Take `COc1ccc(F)cc1Cn1c(-c2cccc(OCC(C)CC(=O)O)c2Cl)nc2c(OC3(C)CC3)ncnc21` (single isomer, unassigned) [Example U77, 4-(2-chloro-3-(9-(5-fluoro-2-methoxybenzyl)-6-(1-methylcyclopropoxy)-9H-purin-8-yl)phenoxy)-3-methylbutanoic acid]: the IC50 in assay [1] (setting [7]) is more than 10000 nM; in assay [2] (setting [8]), 7.94 nM.
`COc1ccc(Cl)c(F)c1Cn1c(-c2ccc(OCCC(C)C(=O)O)cc2Cl)nc2c(OC3(C)CC3)ncnc21` (racemic) [Example U57, 4-(3-chloro-4-(9-(3-chloro-2-fluoro-6-methoxybenzyl)-6-(1-methylcyclopropoxy)-9H-purin-8-yl)phenoxy)-2-methylbutanoic acid]: the IC50 in assay [1] (setting [7]) is more than 10000 nM; in assay [2] (setting [8]), 126 nM.
Consider `Cc1ccnc(Cn2c(-c3ccc(CN4CC5(CCN5)C4)cc3Cl)nc3c(OC4(C)CC4)ncnc32)c1` [Example T489, 8-(4-((1,6-diazaspiro[3.3]heptan-6-yl)methyl)-2-chlorophenyl)-6-(1-methylcyclopropoxy)-9-((4-methylpyridin-2-yl)methyl)-9H-purine], for which the IC50 was 5010 nM in assay [1] (setting [9]) and 794 nM in assay [2] (setting [10]).
`CC1(Oc2ncnc3c2nc(-c2ccc(OCCC(=O)O)cc2Cl)n3Cc2cccc(Cl)c2)CC1` [Example T87, 3-(3-chloro-4-(9-(3-chlorobenzyl)-6-(1-methylcyclopropoxy)-9H-purin-8-yl)phenoxy)propanoic acid]: the IC50 in assay [1] (DLD-1, DLD1 BRCA2 wt cells, mean, read-out: POLQ PD Prolif Lumin DLD1 mean PIC50 (converted)) is more than 10000 nM; in assay [2] (DLD-1, DLD-1 BRCA2 −/− cells, mean, read-out: POLQ PD Prolif Lumin BRCA2 −/− mean pIC50 (converted)), 398 nM.
For the compound `C[C@@H]1CN(CCOc2ccc(-c3nc4c(OC5(C)CC5)ncnc4n3Cc3ccccc3)c(Cl)c2)C[C@H](C)N1` [Example R9, (cis)-9-benzyl-8-(2-chloro-4-(2-(3,5-dimethylpiperazin-1-yl)ethoxy)phenyl)-6-(1-methylcyclopropoxy)-9H-purine], the figures for the IC50 in assay [1] (setting [3]) and in assay [2] (setting [4]) were 1580 nM and 50.1 nM, respectively.
Turning to `Cc1ccnc(Cn2c(-c3ccc(C(=O)N4CC[C@H](N(C)C)C4)cc3Cl)nc3c(OC4(C)CC4)ncnc32)c1` [Example T588, (S)-(3-chloro-4-(6-(1-methylcyclopropoxy)-9-((4-methylpyridin-2-yl)methyl)-9H-purin-8-yl)phenyl)(3-(dimethylamino)pyrrolidin-1-yl)methanone], the IC50 in assay [1] (DLD-1, second proliferation column, DLD-1 BRCA2 wt control, read-out: POLQ PD Prolif Lumin (converted)) was more than 10000 nM; in assay [2] (DLD-1, first proliferation column, DLD-1 BRCA2-/-, read-out: POLQ PD Prolif Lumin (converted)), 1260 nM.
For `CC(CCOc1ccc(-c2nc3c(OC4(C)CC4)ncnc3n2Cc2cc(Cl)ccc2F)c(Cl)c1)C(=O)O` (racemic) [Example T268, 4-(3-chloro-4-(9-(5-chloro-2-fluorobenzyl)-6-(1-methylcyclopropoxy)-9H-purin-8-yl)phenoxy)-2-methylbutanoic acid], the values for the IC50 in assay [1] (setting [5]) and in assay [2] (setting [6]) were more than 10000 nM and 63.1 nM, respectively.
The corresponding values for `Cc1cnc(Cn2c(-c3ccc(OC4CC5(CNC5)C4)cc3Cl)nc3c(OC4(C)CC4)ncnc32)s1` [Example T215, 2-((8-(4-((2-azaspiro[3.3]heptan-6-yl)oxy)-2-chlorophenyl)-6-(1-methylcyclopropoxy)-9H-purin-9-yl)methyl)-5-methylthiazole] are more than 10000 nM and 1000 nM.
In the case of `COc1ccc(F)cc1Cn1c(-c2ccc(OCCC(C)C(=O)O)cc2Cl)nc2c(OC3(C)CC3)ncnc21` (racemic) [Example U2, 4-(3-chloro-4-(9-(5-fluoro-2-methoxybenzyl)-6-(1-methylcyclopropoxy)-9H-purin-8-yl)phenoxy)-2-methylbutanoic acid], the IC50 in assay [1] (setting [7]) is more than 10000 nM; in assay [2] (setting [8]) it was 63.1 nM.
With `Cc1cnc(Cn2c(-c3ccc(OC4CCN(C)CC4)cc3Cl)nc3c(OC4(C)CC4)ncnc32)s1` [Example T241, 2-((8-(2-chloro-4-((1-methylpiperidin-4-yl)oxy)phenyl)-6-(1-methylcyclopropoxy)-9H-purin-9-yl)methyl)-5-methylthiazole], the IC50 was more than 10000 nM in assay [1] (setting [5]) and 316 nM in assay [2] (setting [6]).
Consider `Cc1ccnc(Cn2c(-c3ccc(N4CCNC4=O)cc3Cl)nc3c(OC4(C)CC4)ncnc32)c1` [Example T107, 1-(3-chloro-4-(6-(1-methylcyclopropoxy)-9-((4-methylpyridin-2-yl)methyl)-9H-purin-8-yl)phenyl)imidazolidin-2-one], for which the values for the IC50 in assay [1] (setting [9]) and in assay [2] (setting [10]) were more than 10000 nM and 398 nM, respectively.
As for `Cc1ccnc(Cn2c(-c3ccc(C(=O)NCC(C)(C)O)cc3Cl)nc3c(OC4(C)CC4)ncnc32)c1` [Example T363, 3-chloro-N-(2-hydroxy-2-methylpropyl)-4-(6-(1-methylcyclopropoxy)-9-((4-methylpyridin-2-yl)methyl)-9H-purin-8-yl)benzamide], the IC50 in assay [1] (DLD-1, second proliferation column (c6), taken as DLD-1 BRCA2 wt, read-out: POLQ PD Prolif Lumin (converted)) was more than 10000 nM; in assay [2] (DLD-1, first proliferation column (c5), taken as DLD-1 BRCA2-/-, read-out: POLQ PD Prolif Lumin (converted)), 794 nM.
With `CC1(Oc2cccc3c2nc(-c2ccc(OCCN4CCNCC4)cc2Cl)n3Cc2cc(Cl)ccn2)CC1` [Example 15, 2-(2-chloro-4-(2-(piperazin-1-yl)ethoxy)phenyl)-1-((4-chloropyridin-2-yl)methyl)-4-(1-methylcyclopropoxy)-1H-benzo[d]imidazole], the IC50 in assay [1] (setting [3]) was 6310 nM; in assay [2] (setting [4]) it was 251 nM.
